The subject of data set [1] is deoxyglucose (DOG) utilisation in the brain. Put plainly: Muscarinic and nicotinic effects on brain glucose utilisation (deoxyglucose autoradiography). It counts as in vivo, rat. The settings on record: 7.5 μmol/kg p.o. From the text:
Muscarinic and nicotinic effects on brain glucose utilisation
Changes in the functional activity of the CNS are associated with altered deoxyglucose (DOG) utilisation in the brain which can be visualised simultaneously in several brain regions using the autoradiographic method of Sokoloff et al., J. Neurochem. 28, 897 (1977). The administration of cholinergic drugs either direct (muscarinic agonists) or indirect (accumulation of acetylcholine) induces in this model a characteristic "fingerprint" pattern by modifying the regional glucose metabolism.
Male Wistar rats (150-200 g) are used. Drugs are administered at various doses and by different routes (i.v., p.o., i.p.) to animals. [14C]-2-deoxyglucose (125 μC/kg) is injected 45 min. before the animals are sacrificed. The brains are immediately excised, frozen at -80° C. and subsequently cut in slices with a thickness of 20 μm. The optical densities of the radiographic images are measured according to a modification of Sokoloff et al.

Data set [2] concerns the target T1, AChE (Rattus norvegicus, UniProt P37136). It counts as in vivo. Further details: from tissue; host or cells: male OFA rats: cortex, hippocampus, striatum, pons/medulla, heart, blood. The following applies: Transdermal 30 μmol/kg. As for the experimental part: (§1) The AChE activity is measured according to the method described by Ellman (Arch. Biochem. Biophys. 82, 70, 1959). Rat brain tissue is homogenized in cold phosphate buffer pH 7.3 (0.25 mM) containing 0.1% of Triton X-100. After centrifugation aliquots of the clear supernatant is used as enzyme source. The enzyme is preincubated with different concentrations of the inhibitor. After different times, substrate (acetylthiocholinjodide 0.5 mM) is added and the remaining activity determined.
The compounds are dissolved in or diluted with n-heptane to a concentration of 1 or 3 mg/20 μl. […] The application place is immediately covered using a thin plastic film and a plaster. The animal has no access to the plaster. Various times after the administration the animals are killed by decapitation and the remaining AChE activity is measured.

Data set [3] can be described thus: In vitro skin diffusion test (penetration through the skin). It counts as in vitro ADME. The following applies: rat skin; listed as compound A. From the text: The penetration through the skin of the compounds for administration according to the invention may be observed in standard in vitro or in vivo tests.
One in vitro test is the well known diffusion test which may be effected according to the principles set out in GB 2098865 A and by T. J. Franz in J. Invest. Dermatol. (1975) 64, 194-195. Solutions containing the active agent in unlabelled or radioactively labelled form are applied to one side of isolated pieces of intact human skin or hairless rat skin about 2 cm^2 in area. The other side of the skin is in contact with physiological saline. The amount of active agent in the saline is measured in conventional manner, e.g. by HPLC or spectrophotometric techniques, or by determining the radioactivity.
In this test using rat skin the following penetration rates, for example, have been found: […]

The subject of data set [4] is dopamine metabolism in striatum. Put plainly: Influence on dopamine metabolism. It counts as in vivo, rat. As for the experimental part: Influence on dopamine metabolism
Male OFA rats (150-200 g) were used both for acute and subchronic experiments. The animals are maintained under 12 hour periods of light and dark. The animals are sacrificed always between 11.00 and 13.00 h. The brains are excised immediately, dissected on ice according to the method of GLOWINSKI and IVERSEN, J. Neurochem. 13, 655 (1966), frozen on dry ice and the tissue samples stored at -80° C. until analysis.
Dopamine and its metabolites DOPAC (3,4-dihydroxyphenylacetic acid) and HVA (homovanillic acid) are determined in brain tissue extracts which are obtained by homogenisation of the stored brain tissue samples in 0.1N HCl containing 0.05 mM ascorbic acid and subsequent centrifugation. Striatal and cortical tissues are used.
The determination of the metabolites is performed using either the gas chromatography/mass fragmentography (GCMS) technique as described by KAROUM et al., J. Neurochem. 25, 653 (1975) and CATABENI et al., Science 178, 166 (1972) or the fluorometric method as described by […] and MAITRE, Analyt. Biochem. 51, 474 (1973). For the GCMS method, tissue extracts are prepared by adding known amounts of deuterated monoamines and their respective metabolites as internal standards.

Data set [5] addresses T1, AChE. Put plainly: in vivo. More on the design: Rat brain tissue is homogenized in cold phosphate buffer pH 7.3; from tissue; host or cells: rat brain (cortex, hippocampus, striatum), supernatant of Triton X-100 homogenate. The following applies: for ED50: rat, po, 0.5 h. As for the experimental part:
as §1
Acetylcholinesterase inhibition ex vivo in different rat brain regions
The method is as disclosed above.

Setting [6] is: six hours after 10 μmol/kg p.o.

Where two headings read alike, the source gives them in different places.

T1 sequence (P37136 32-614): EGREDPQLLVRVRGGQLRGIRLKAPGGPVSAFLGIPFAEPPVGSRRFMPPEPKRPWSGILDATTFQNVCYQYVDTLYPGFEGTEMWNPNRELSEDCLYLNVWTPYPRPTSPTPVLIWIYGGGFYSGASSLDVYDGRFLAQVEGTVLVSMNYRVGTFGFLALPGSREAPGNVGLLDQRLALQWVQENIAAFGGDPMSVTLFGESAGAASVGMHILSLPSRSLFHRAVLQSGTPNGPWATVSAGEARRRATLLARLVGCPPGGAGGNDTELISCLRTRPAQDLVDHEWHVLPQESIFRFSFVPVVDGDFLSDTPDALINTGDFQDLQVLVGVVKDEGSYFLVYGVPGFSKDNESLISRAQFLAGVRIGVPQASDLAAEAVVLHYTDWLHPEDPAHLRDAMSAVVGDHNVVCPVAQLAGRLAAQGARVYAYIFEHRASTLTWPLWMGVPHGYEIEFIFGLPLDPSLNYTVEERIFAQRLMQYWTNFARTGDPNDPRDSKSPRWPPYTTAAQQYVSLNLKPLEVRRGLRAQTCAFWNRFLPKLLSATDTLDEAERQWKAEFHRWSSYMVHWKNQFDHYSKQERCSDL

`CCN(C)C(=O)Oc1cccc([C@H](C)N(C)C)c1` [Compound A, (S)-N-ethyl-3-[(1-dimethylamino)ethyl]-N-methyl-phenyl-carbamate]: the “changes in DOG utilisation in various rat brain regions” value in data set [1] is reported as “significant changes in DOG utilisation”. In addition, the “AChE activity in % of controls ± SD, Blood” value is reported as 71.3 ± 12.3 % of controls in data set [2] (0.5 hours after treatment) and 78.1 ± 17.8 % of controls in data set [2] (24 hours after treatment). The “AChE activity in % of controls ± SD, Cortex” value in data set [2] (6 hours after treatment) is recorded as 42.4 ± 11.7 % of controls. For the same molecule, the “AChE activity in % of controls ± SD, Striatum” value in data set [2] (6 hours after treatment) is 65.9 ± 15.5 % of controls. For the same molecule, the penetration rate in data set [3] came to 23.6±14.9%. In data set [4] (following administration), the “dopamine metabolism in striatum” value is reported as “increased”. Further, the “enhancing the striatal dopamine metabolite concentration, comparison” value in data set [4] (rat, in vivo) is “more active than compound B and racemate C”. Moreover, the ED50 in data set [5] (read-out: IC50 ex vivo AChE, cortex) worked out at 2 µmol/kg; in data set [5] (read-out: IC50 ex vivo AChE, hippocampus), 4 µmol/kg; in data set [5] (read-out: IC50 ex vivo AChE, striatum) it was 7 µmol/kg. Further, the “AChE inhibition ex vivo, cortex” value in data set [5] (setting [6]) is 39%. Further, the “AChE inhibition ex vivo, hippocampus” value in data set [5] (setting [6]) was 44%. Moreover, the “AChE inhibition ex vivo, striatum” value in data set [5] (setting [6]) is listed as 16%.

The values above are taken from patent US5602176A, “Phenyl carbamate” (priority 1987, dated 1997).
